Reference: patent publication US5852210A, “Cinnamic acid derivatives” (G. D. Searle & Co., priority 1997, dated 1998)
Where a name gives a salt, the structure may show the parent alone. Read-outs that look alike come from different tables or passages of the source.

Experiments:
[1] = molecular target: T1, Human fibrinogen receptor (αIIb β3) (Homo sapiens, UniProt P05106+P08514); test: Purified IIb/IIIa receptor assay (solid phase receptor assay); conditions: inhibition of binding of biotinylated human vitronectin (1 nM) to purified receptor; Table I
T1 construct: Human fibrinogen receptor (αIIb β3) was purified from outdated platelets; from tissue; host or cells: human outdated platelets
Procedure: (§1) The activity of the compounds of the present invention was tested in the following assays.
Human fibrinogen receptor (αIIb β3) was purified from outdated platelets. (Pytela, R., Pierschbacher, M. D., Argraves, S., Suzuki, S., and Rouslahti, E. "Arginine-Glycine-Aspartic acid adhesion receptors", Methods in Enzymology 144(1987):475-489.) Human vitronectin was purified from fresh frozen plasma as described in Yatohgo, T., Izumi, M., Kashiwagi, H., and Hayashi, M., "Novel purification of vitronectin from human plasma by heparin affinity chromatography," Cell Structure and Function 13(1988):281-292. Biotinylated human vitronectin was prepared by coupling NHS-biotin from Pierce Chemical Company (Rockford, Ill.) to purified vitronectin as previously described. (Charo, I. F., Nannizzi, L., Phillips, D. R., Hsu, M. A., Scarborough, R. M., "Inhibition of fibrinogen binding to GP IIb/IIIa by a GP IIIa peptide", J. Biol. Chem. 266(3) (1991): 1415-1421.) Assay buffer, OPD substrate tablets, and RIA grade BSA were obtained from Sigma (St. Louis, Mo.). Anti-biotin antibody was obtained from Calbiochem (La Jolla, Calif.). Linbro microtiter plates were obtained from Flow Labs (McLean, Va.). ADP reagent was obtained from Sigma (St. Louis, Mo.).
(§2) Solid Phase Receptor Assays
This assay is essentially the same reported in Niiya, K., Hodson, E., Bader, R., Byers-Ward, V. Koziol, J. A., Plow, E. F. and Ruggeri, Z. M., "Increased surface expression of the membrane glycoprotein IIb/IIIa complex induced by platelet activation: Relationships to the binding of fibrinogen and platelet aggregation", Blood 70 (1987):475-483. The purified human fibrinogen receptor (αIIb β3) was diluted from stock solutions to 1.0 μg/mL in Tris-buffered saline containing 1.0 mM Ca^++, Mg^++, and Mn^++, pH 7.4 (TBS^+++). The diluted receptor was immediately transferred to Linbro microtiter plates at 100 μL/well (100 ng receptor/well). The plates were sealed and incubated overnight at 4° C. to allow the receptor to bind to the wells. All remaining steps were at room temperature. The assay plates were emptied and 200 μL of 1% RIA grade BSA in TBS^+++ (TBS^+++ /BSA) were added to block exposed plastic surfaces. Following a 2 hour incubation, the assay plates were washed with TBS^+++ using a 96 well plate washer. Logarithmic serial dilution of the test compound and controls were made starting at a stock concentration of 2 mM and using 2 nM biotinylated vitronectin in TBS^+++ /BSA as the diluent. This premixing of labeled ligand with test (or control) ligand, and subsequent transfer of 50 μL aliquots to the assay plate was carried out with a CETUS Propette robot; the final concentration of the labeled ligand was 1 nM and the highest concentration of test compound was 1.0×10^-4 M. The competition occurred for two hours after which all wells were washed with a plate washer as before. Affinity purified horseradish peroxidase labeled goat anti-biotin antibody was diluted 1:3000 in TBS^+++ /BSA and 125 μL were added to each well. After 30 minutes, the plates were washed and incubated with […]/H2 O2 substrate in 100 mM/L citrate buffer, pH 5.0. The plate was read with a microtiter plate reader at a wavelength of 450 nm and when the maximum-binding control wells reached an absorbance of about 1.0, the final A450 were recorded for analysis. The data were analyzed using a macro written for use with the EXCEL™ spreadsheet program. The mean, standard deviation, and % CV were determined for duplicate concentrations. The mean A450 values were normalized to the mean of four maximum-binding controls (no competitor added) (B-MAX). The normalized values were subjected to a four parameter curve fit algorithm, [Robard et al., Int.

[2] = molecular target: T2, Human vitronectin receptor (αv β3) (Homo sapiens, UniProt P05106+P06756); test: Vitronectin adhesion assay (solid phase receptor assay, αvβ3); format: binding
T2 construct: Human vitronectin receptor (αv β3) was purified from human placenta; from tissue; host or cells: human placenta
Procedure: as §1
Human vitronectin receptor (αv β3) was purified from human placenta as previously described [Pytela et al., Methods in Enzymology, 144:475-489 (1987)]. Human vitronectin was purified from fresh frozen plasma as previously described [Yatohgo et al., Cell Structure and Function, 13:281-292 (1988)]. Biotinylated human vitronectin was prepared by coupling NHS-biotin from Pierce Chemical Company (Rockford, Ill.) to purified vitronectin as previously described [Charo et al., J. Biol. Chem., 266(3):1415-1421 (1991)]. Assay buffer, OPD substrate tablets, and RIA grade BSA were obtained from Sigma (St. Louis, Mo.). Anti-biotin antibody was obtained from Calbiochem (La Jolla, Calif.). Linbro microtiter plates were obtained from Flow Labs (McLean, Va.). ADP reagent was obtained from Sigma (St. Louis, Mo.).
as §2
This assay was essentially the same as previously reported [Niiya et al., Blood, 70:475-483 (1987)]. The purified human vitronectin receptor (αv β3) was diluted from stock solutions to […] in Tris-buffered saline containing 1.0 mM Ca^++, Mg^++, and Mn^++, pH 7.4 (TBS^+++). The diluted receptor was immediately transferred to Linbro microtiter plates at 100 μL/well (100 ng receptor/well). The plates were sealed and incubated overnight at 4° C. to allow the receptor to bind to the wells. All remaining steps were at room temperature. The assay plates were emptied and 200 μL, of 1% RIA grade BSA in TBS^+++ (TBS^+++ /BSA) were added to block exposed plastic surfaces. Following a 2 hour incubation, the assay plates were washed with TBS^+++ using a 96 well plate washer. Logarithmic serial dilution of the test compound and controls were made starting at a stock concentration of 2 mM and using 2 nM biotinylated vitronectin in TBS^+++ /BSA as the diluent. This premixing of labeled ligand with test (or control) ligand, and subsequent transfer of 50 μL aliquots to the assay plate was carried out with a CETUS Propette robot; the final concentration of the labeled ligand was 1 nM and the highest concentration of test compound was 1.0×10^-4 M. The competition occurred for two hours after which all wells were washed with a plate washer as before. Affinity purified horseradish peroxidase labeled goat anti-biotin antibody was diluted 1:3000 in TBS^+++ /BSA and 125 μL were added to each well. After 30 minutes, the plates were washed and incubated with OPD/H2 O2 substrate in 100 mM/L Citrate buffer, pH 5.0. The plate was read with a microtiter plate reader at a wavelength of 450 nm and when the maximum-binding control wells reached an absorbance of about 1.0, the final A450 were recorded for analysis. The data were analyzed using a macro written for use with the EXCEL™ spreadsheet program. The mean, standard deviation, and % CV were determined for duplicate concentrations. The mean A450 values were normalized to the mean of four maximum-binding controls (no competitor added) (B-MAX). The normalized values were subjected to a four parameter curve fit algorithm [Rodbard et al., Int.

[3] = inhibition of binding of biotinylated human vitronectin (1 nM) to purified receptor, Table I, read-out: AvB3 IC50

T2 sequence (P06756 31-889 limits assumed): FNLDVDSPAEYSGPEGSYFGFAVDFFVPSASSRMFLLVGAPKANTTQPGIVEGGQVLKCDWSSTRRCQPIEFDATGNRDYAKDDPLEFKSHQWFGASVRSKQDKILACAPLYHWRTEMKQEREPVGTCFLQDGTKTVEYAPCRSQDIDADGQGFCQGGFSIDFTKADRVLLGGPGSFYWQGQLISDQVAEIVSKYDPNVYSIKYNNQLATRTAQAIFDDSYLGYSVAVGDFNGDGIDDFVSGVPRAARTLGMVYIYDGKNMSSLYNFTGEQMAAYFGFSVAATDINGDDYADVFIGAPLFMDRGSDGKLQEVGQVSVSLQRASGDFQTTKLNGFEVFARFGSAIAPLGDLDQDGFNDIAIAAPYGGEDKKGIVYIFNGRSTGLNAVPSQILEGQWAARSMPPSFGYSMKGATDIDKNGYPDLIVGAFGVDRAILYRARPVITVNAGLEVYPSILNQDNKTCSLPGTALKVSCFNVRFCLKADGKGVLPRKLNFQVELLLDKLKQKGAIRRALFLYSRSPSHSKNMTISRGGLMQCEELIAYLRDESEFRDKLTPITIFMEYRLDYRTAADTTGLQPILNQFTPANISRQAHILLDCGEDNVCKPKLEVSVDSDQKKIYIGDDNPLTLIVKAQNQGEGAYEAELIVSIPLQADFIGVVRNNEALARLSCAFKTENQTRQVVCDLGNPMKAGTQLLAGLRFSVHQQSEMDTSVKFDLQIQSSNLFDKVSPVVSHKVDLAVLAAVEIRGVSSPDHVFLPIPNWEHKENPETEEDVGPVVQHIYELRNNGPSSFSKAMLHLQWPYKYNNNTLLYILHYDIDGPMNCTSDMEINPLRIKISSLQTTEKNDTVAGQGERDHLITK
T2 sequence (P06756 891-1048 limits assumed): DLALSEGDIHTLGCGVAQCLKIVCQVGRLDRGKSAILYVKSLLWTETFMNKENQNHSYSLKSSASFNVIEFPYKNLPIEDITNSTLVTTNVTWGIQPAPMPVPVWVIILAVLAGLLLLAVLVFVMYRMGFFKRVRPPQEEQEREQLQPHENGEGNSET
T2 sequence (P05106 27-788): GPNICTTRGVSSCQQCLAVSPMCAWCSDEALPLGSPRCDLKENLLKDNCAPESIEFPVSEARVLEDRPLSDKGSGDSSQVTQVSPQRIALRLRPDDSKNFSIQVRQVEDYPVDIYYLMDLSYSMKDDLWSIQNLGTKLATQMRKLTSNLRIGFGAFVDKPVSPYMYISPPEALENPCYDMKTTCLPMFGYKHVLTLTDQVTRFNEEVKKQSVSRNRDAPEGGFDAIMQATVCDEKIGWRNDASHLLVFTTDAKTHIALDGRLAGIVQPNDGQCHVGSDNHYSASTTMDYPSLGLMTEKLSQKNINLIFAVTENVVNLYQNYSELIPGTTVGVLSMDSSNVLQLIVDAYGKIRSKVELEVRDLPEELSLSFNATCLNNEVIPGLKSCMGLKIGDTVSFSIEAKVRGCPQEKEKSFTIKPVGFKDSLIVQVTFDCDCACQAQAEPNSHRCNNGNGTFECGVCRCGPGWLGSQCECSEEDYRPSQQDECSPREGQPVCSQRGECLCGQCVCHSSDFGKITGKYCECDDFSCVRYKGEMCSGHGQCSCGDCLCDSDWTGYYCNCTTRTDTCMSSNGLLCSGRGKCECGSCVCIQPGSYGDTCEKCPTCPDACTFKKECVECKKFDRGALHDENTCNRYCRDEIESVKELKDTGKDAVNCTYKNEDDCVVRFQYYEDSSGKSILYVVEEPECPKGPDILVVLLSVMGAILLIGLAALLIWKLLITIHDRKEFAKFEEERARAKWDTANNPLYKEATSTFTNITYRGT
T1 sequence (P08514 32-887 limits assumed): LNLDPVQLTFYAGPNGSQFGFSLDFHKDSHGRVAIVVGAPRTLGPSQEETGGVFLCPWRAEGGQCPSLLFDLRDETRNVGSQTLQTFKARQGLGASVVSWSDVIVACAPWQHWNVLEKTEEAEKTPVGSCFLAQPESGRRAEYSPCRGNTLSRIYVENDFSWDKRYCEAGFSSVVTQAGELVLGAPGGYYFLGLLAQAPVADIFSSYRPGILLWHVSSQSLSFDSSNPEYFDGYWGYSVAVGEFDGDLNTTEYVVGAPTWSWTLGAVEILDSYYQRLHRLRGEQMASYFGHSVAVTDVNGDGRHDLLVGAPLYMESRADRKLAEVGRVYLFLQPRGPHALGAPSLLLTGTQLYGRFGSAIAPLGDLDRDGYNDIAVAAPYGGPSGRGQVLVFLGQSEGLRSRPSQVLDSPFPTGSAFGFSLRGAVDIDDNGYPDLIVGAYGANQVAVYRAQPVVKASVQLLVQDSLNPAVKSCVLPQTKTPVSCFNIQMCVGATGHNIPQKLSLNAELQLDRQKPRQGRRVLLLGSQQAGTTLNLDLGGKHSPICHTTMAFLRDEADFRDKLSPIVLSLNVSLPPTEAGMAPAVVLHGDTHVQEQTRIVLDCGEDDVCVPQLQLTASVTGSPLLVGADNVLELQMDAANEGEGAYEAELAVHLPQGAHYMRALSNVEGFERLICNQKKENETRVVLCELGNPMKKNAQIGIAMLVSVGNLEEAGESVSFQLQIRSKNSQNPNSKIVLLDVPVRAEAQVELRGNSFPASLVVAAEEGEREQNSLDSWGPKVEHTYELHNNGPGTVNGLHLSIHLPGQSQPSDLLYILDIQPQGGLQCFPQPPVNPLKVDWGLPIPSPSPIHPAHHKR
T1 sequence (P08514 891-1039 limits assumed): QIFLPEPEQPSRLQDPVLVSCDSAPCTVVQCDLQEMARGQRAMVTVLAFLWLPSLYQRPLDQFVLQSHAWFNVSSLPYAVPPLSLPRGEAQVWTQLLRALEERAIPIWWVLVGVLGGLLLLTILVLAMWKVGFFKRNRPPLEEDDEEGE
T1 sequence (P05106 27-788): as the sequence (P05106 27-788) above

`N=C(N)Nc1cccc(C(O)CCc2cccc(/C=C/C(=O)O)c2)c1` (racemic) [Example 96, 3-[3-[3-[3-[(aminoiminomethyl)amino]phenyl]-3-hydroxypropyl]phenyl]propenoic acid, trifluoroacetate salt] showed an IC50 [1] of 15600 nM and an IC50 [2, 3] of 207 nM.

For `N=C(N)Nc1cccc(C(=O)Nc2ccc(C(=CC(=O)O)c3ccccc3)cc2)c1` (single isomer, unassigned) [Example 58, 3-[4-[[[3-[(aminoiminomethyl)amino]phenyl]-carbonyl]amino]phenyl]-3-phenylpropenoic acid, trifluoroacetate salt], the IC50 [1] was 2270 nM and the IC50 [2, 3] was 79.8 nM.

With `COC(=O)/C=C/c1cccc(CNC(=O)c2cccc(NC(=N)N)c2)c1` [Example 1, methyl 3-[3-[[[[3-[(aminoiminomethyl)-amino]phenyl]carbonyl]amino]methyl]phenyl]-2-propenoate, trifluoroacetate salt] the IC50 [1] was over 100000 nM and the IC50 [2, 3] was 15800 nM.

Compound `N=C(N)Nc1cccc(C(=O)NCc2cccc(/C=C/C(=O)O)c2)c1` [Example 2, 3-[3-[[[[3-[(aminoiminomethyl)amino]phenyl]carbonyl]amino]methyl]phenyl]-2-propenoic acid, trifluoroacetate salt] has an IC50 [1] of 657 nM and an IC50 [2, 3] of 13 nM.

For `CCOC(=O)/C=C/c1ccc(NC(=O)c2cccc(NC(=N)N)c2)cc1` [Example 3, ethyl 3-[4-[[[3-[(aminoiminomethyl)amino]phenyl]carbonyl]amino]phenyl]-2-propenoate, monohydrate trifluoroacetate salt], the IC50 [1] was 32200 nM and the IC50 [2, 3] was 29000 nM.

In the case of `N=C(N)Nc1cccc(C(=O)Nc2ccc(/C=C/C(=O)O)cc2)c1` [Example 4, 3-[4-[[[3-[(aminoiminomethyl)amino]phenyl]carbonyl]amino]phenyl]-2-propenoic acid, trifluoroacetate salt], the IC50 [1] is reported as 7.05 nM and the IC50 [2, 3] is reported as 10.6 nM.

`Cc1cc(/C=C/C(=O)O)ccc1NC(=O)c1cccc(NC(=N)N)c1` [Example 5, 3-[4-[[[3-[(arainoiminomethyl)amino]phenyl]carbonyl]amino]-3-methylphenyl]propenoic acid, trifluoroacetate salt] showed an IC50 [1] of 9.58 nM and an IC50 [2, 3] of 4.01 nM.

Compound `CCc1cc(/C=C/C(=O)O)ccc1NC(=O)c1cccc(NC(=N)N)c1` [Example 7, 3-[4-[[[3-[(aminoiminomethyl)amino]phenyl]carbonyl]amino]-3-ethylphenyl]propenoic acid, trifluoroacetate salt] has an IC50 [1] of 15.1 nM and an IC50 [2, 3] of 2.95 nM.

Compound `N=C(N)Nc1cccc(C(=O)Nc2ccc(/C=C/C(=O)O)cc2Cl)c1` [Example 9, 3-[4-[[[3-[(aminoiminomethyl)amino]phenyl]-carbonyl]amino]3-chlorophenyl]propenoic acid, trifluoroacetate salt] has an IC50 [1] of 11 nM and an IC50 [2, 3] of 3.46 nM.

Work on `N=C(N)Nc1cccc(C(=O)Nc2ccc(/C=C/C(=O)O)cc2F)c1` [Example 11, 3-[4-[[[3-[(aminoiminomethyl)aminolphenyl]carbonyl]-amino]-3-fluorophenyl]-2E-propenoic acid, trifluoroacetate salt] yielded an IC50 [1] of 14.1 nM and an IC50 [2, 3] of 7.07 nM.

In the case of `N=C(N)Nc1cccc(C(=O)Nc2ccc(/C=C/C(=O)O)cc2C(F)(F)F)c1` [Example 12, 3-[4-[[[3-[(aminoiminomethyl)amino]phenyl]carbonyl]amino]-3-(trifluoromethyl)phenyl]-2E-propenoic acid, trifluoroacetate salt], the IC50 [1] is reported as 670 nM and the IC50 [2, 3] is reported as 155 nM.

For `Cc1cc(/C=C/C(=O)O)cc(C)c1NC(=O)c1cccc(NC(=N)N)c1` [Example 13, 3-[4-[[[3-[(aminoiminomethyl)amino]phenyl]carbonyl]-amino]-3,5-dimethylphenyl]-2E-propenoic acid, trifluoroacetate salt], the IC50 [1] was 2160 nM and the IC50 [2, 3] was 23.1 nM.

Compound `Cc1cc(/C=C/C(=O)O)cc(Cl)c1NC(=O)c1cccc(NC(=N)N)c1` [Example 15, 3-[4-[[[3-[(aminoiminomethyl)amino]phenyl]carbonyl]-amino]-3-chloro-5-methylphenyl]-2E-propenoic acid, trifluoroacetate salt] has an IC50 [1] of 2620 nM and an IC50 [2, 3] of 28.8 nM.

`N=C(N)Nc1cccc(C(=O)Nc2ccc(/C=C/C(=O)O)c3ccccc23)c1` [Example 16, 3-[4-[[[3-[(aminoiminomethyl)amino]phenyl]carbonyl]-amino]naphthalen-1-yl]-2E-propenoic acid, trifluoroacetate salt] was tested, and the IC50 [1] was 25.4 nM and the IC50 [2, 3] was 50.9 nM.

`Cc1cc(/C=C/C(=O)O)ccc1NC(=O)c1cccc(NC2=NCCCN2)c1` [Example 18, 3-[3-methyl-4-[[[3-[(1,4,5,6-tetrahydropyrimidin-2-yl)amino]phenyl]carbonyl]amino]phenyl]propenoic acid, trifluoroacetate salt] showed an IC50 [1] of 181 nM and an IC50 [2, 3] of 0.46 nM.

Work on `N=C(N)Nc1cccc(C(=O)Nc2ccc(/C=C/C(=O)O)c(Cl)c2)c1` [Example 28, 3-[4-[[[3-[(aminoiminomethyl)amino]phenyl]carbonyl]-amino]-2-chlorophenyl]propenoic acid, trifluoroacetate salt] yielded an IC50 [2, 3] of 23.3 nM.

In the case of `N=C(N)NCCCCC(=O)NCC(=O)NC(CC(=O)O)c1cccnc1` (stereo not drawn) [β-[[2-[[5-[(aminoiminomethyl)amino]-1-oxopentyl]amino]-1-oxoethyl]amino]-3-pyridinepropanoic acid], the IC50 ([2]; positive control included on each plate, read-out: αv β3 antagonist IC50 of positive control) is reported as 3 to 10 nM.
